Results on 29 compounds are retold here after patent US9511058B2, “Methods for using carboxamide, sulfonamide and amine compounds” (Rigel Pharmaceuticals, Inc., priority 2010, dated 2016).

For orientation: pEC50 means the negative decadic logarithm of the EC50, by convention in mol/L. The low end stands for a large EC50, the high end for a small EC50.

pEC50: −log10 of the molar value.

One experiment concerns the target AMPK. The experiment in a line: AMPK activation, enzyme-linked immunosorbent assay. It counts as biochemical. To be noted: compounds of Table 1 (Table 6).
Compound `O=C(NC1CCN(Cc2ccc(F)cc2)CC1)c1ccc(OC2CCN(c3ccc(C(F)(F)F)cc3)CC2)nc1` [1-11, N-(1-(4-fluorobenzyl)piperidin-4-yl)-6-(1-(4-(trifluoromethyl)phenyl)piperidin-4-yloxy)nicotinamide] gave a pEC50 of more than 7.00.

As to `COC(=O)c1ccc(CN2CCC(NC(=O)c3ccc(OC4CCN(c5ccc(C(F)(F)F)cc5)CC4)cn3)CC2)cc1` [1-8, methyl 4-((4-(5-(1-(4-(trifluoromethyl)phenyl)piperidin-4-yloxy)picolinamido)piperidin-1-yl)methyl)benzoate], the pEC50 is more than 7.00.

`O=C(NC1CCN(Cc2ccccc2)CC1)c1ccc(OC2CCN(c3ccc(C(F)(F)F)cc3)CC2)cn1` [1-38, N-(1-benzylpiperidin-4-yl)-5-(1-(4-(trifluoromethyl)phenyl)piperidin-4-yloxy)picolinamide] had a pEC50 of 5.30 to 6.00.

In turn, `O=C(NC1CCN(C(=O)c2ccncc2)CC1)c1cc2ccc(OC3CCN(c4ccc(C(F)(F)F)cc4)CC3)cc2o1` [1-112, N-(1-isonicotinoylpiperidin-4-yl)-6-(1-(4-(trifluoromethyl)phenyl)piperidin-4-yloxy)benzofuran-2-carboxamide] had a pEC50 of more than 7.00.

Take `Cc1c(C(=O)NC2CCN(C(=O)OC(C)(C)C)CC2)oc2cc(OC3CCN(c4ccc(C(F)(F)F)cc4)CC3)ccc12` [1-61, tert-butyl 4-(3-methyl-6-(1-(4-(trifluoromethyl)phenyl)piperidin-4-yloxy)benzofuran-2-carboxamido)piperidine-1-carboxylate]: the pEC50 is 6.30 to 7.00.

Compound `N#Cc1ccc(CN2CCC(NC(=O)c3cc4ccc(OC5CCN(c6ccc(C(F)(F)F)cc6)CC5)cc4o3)CC2)cc1` [1-90, N-(1-(4-cyanobenzyl)piperidin-4-yl)-6-(1-(4-(trifluoromethyl)phenyl)piperidin-4-yloxy)benzofuran-2-carboxamide] gave a pEC50 of more than 7.00.

For `O=C(NC1CCN(S(=O)(=O)c2cccnc2)CC1)c1cc2ccc(OC3CCN(c4ccc(OC(F)(F)F)cc4)CC3)cc2o1` [1-108, N-(1-(pyridin-3-ylsulfonyl)piperidin-4-yl)-6-(1-(4-(trifluoromethoxy)phenyl)piperidin-4-yloxy)benzofuran-2-carboxamide], the pEC50 was 6.30 to 7.00.

`CC(C)(C)OC(=O)N1CCC(NS(=O)(=O)c2ccc(OC3CCN(c4ccc(C(F)(F)F)cc4)CC3)nc2)CC1` [1-54, tert-butyl 4-(6-(1-(4-(trifluoromethyl)phenyl)piperidin-4-yloxy)pyridine-3-sulfonamido)piperidine-1-carboxylate] showed a pEC50 of 5.30 to 6.00.

`O=C(NC1CCN(Cc2cccnc2)CC1)c1ccc(OC2CCN(c3ccc(C(F)(F)F)cc3)CC2)cn1` [1-5, N-(1-(pyridin-3-ylmethyl)piperidin-4-yl)-5-(1-(4-(trifluoromethyl)phenyl)piperidin-4-yloxy)picolinamide] showed a pEC50 of more than 7.00.

Compound `NC(=O)c1ccc(CN2CCC(Oc3ccc4oc(C(=O)NC5CCN(Cc6ccccc6)CC5)cc4c3)CC2)cc1` [1-116, N-(1-benzylpiperidin-4-yl)-5-(1-(4-carbamoylbenzyl)piperidin-4-yloxy)benzofuran-2-carboxamide] had a pEC50 of 6.30 to 7.00.

The same experiment, now with this note: compounds of Table 2 (Table 7).
Compound `N#Cc1ccc(CN2CCC(NC(=O)c3ccc4[nH]c5c(c4c3)CN(Cc3ccc(C(F)(F)F)cc3)CC5)CC2)cc1` [2-12, N-(1-(4-cyanobenzyl)piperidin-4-yl)-2-(4-(trifluoromethyl)benzyl)-2,3,4,5-tetrahydro-1H-pyrido [4,3-b]indole-8-carboxamide] gave a pEC50 of more than 6.30.

In the case of `O=C(NC1CCN(Cc2cccnc2)CC1)c1ccc2[nH]c3c(c2c1)CN(Cc1ccc(F)cc1)CC3` [2-8, 2-(4-fluorobenzyl)-N-(1-(pyridin-3-ylmethyl)piperidin-4-yl)-2,3,4,5-tetrahydro-1H-pyrido[4,3-b]indole-8-carboxamide], the pEC50 is 5.00 to 5.30.

`CC(=O)n1c2c(c3cc(C(=O)NC4CCN(Cc5cccnc5)CC4)ccc31)CN(Cc1ccc(C(F)(F)F)cc1)CC2` [2-20, 5-acetyl-N-(1-(pyridin-3-ylmethyl)piperidin-4-yl)-2-(4-(trifluoromethyl)benzyl)-2,3,4,5-tetrahydro-1H-pyrido[4,3-b]indole-8-carboxamide] showed a pEC50 of 5.30 to 6.00.

The same experiment, now with this note: compounds of Table 3 (Table 8).
`N#Cc1ccc(CN2CCC(NC(=O)c3ccc(C(=O)N4CCN(Cc5ccc(Cl)cc5)CC4)cc3)CC2)cc1` [3-28, 4-(4-(4-chlorobenzyl)piperazine-1-carbonyl)-N-(1-(4-cyanobenzyl)piperidin-4-yl)benzamide] gave a negative-log EC50 (pEC50) of more than 7.00.

The same experiment, now with this note: compounds of Table 4 (Table 9).
Take `O=C(N[C@H]1CCN(Cc2ccc(Cl)cc2)C1)c1ccc(C(=O)N2CCN(c3ccc(Cl)cc3)CC2)cn1` [4-7, N-(1-(4-chlorobenzyl)pyrrolidin-3-yl)-5-(4-(4-chlorophenyl)piperazine-1-carbonyl)picolinamide]: the pEC50 was 5.30 to 6.00.

In turn, `O=C(N[C@H]1CCN(Cc2ccc(C(F)(F)F)cc2)C1)c1ccc(C(=O)N2CCN(c3ccc(Cl)cc3)CC2)cn1` [4-8, 5-(4-(4-chlorophenyl)piperazine-1-carbonyl)-N-(1-(4-(trifluoromethyl)benzyl)pyrrolidin-3-yl)picolinamide] showed a pEC50 of 5.30 to 6.00.

The same experiment, now with this note: compounds of Table 5 (Table 10).
Take `O=C(NC1CCN(Cc2ccccc2)CC1)c1cc(Cl)c(OC2CCN(Cc3ccc(F)c(F)c3)CC2)c(Cl)c1` [5-76, N-(1-benzylpiperidin-4-yl)-3,5-dichloro-4-(1-(3,4-difluorobenzyl)piperidin-4-yloxy)benzamide]: the pEC50 was more than 6.00.

Regarding `O=C(NC1CCN(Cc2ccc(Cl)cc2)CC1)c1ccc(OC2CCN(Cc3ccc(Cl)c(Cl)c3)CC2)c(F)c1` [5-80, N-(1-(4-chlorobenzyl)piperidin-4-yl)-4-(1-(3,4-dichlorobenzyl)piperidin-4-yloxy)-3-fluorobenzamide], the pEC50 is more than 6.00.

In turn, `O=C(NCCCN1CCOCC1)c1ccc(OC2CCN(Cc3ccc(Cl)cc3)CC2)cc1` [5-100, 4-(1-(4-chlorobenzyl)piperidin-4-yloxy)-N-(3-morpholinopropyl)benzamide] had a pEC50 of 5.00 to 6.00.

`N#Cc1ccc(N2CCC(Oc3ccc(C(=O)NC4CCN(Cc5ccc(Cl)cc5)CC4)cc3F)CC2)cc1` [5-81, N-(1-(4-chlorobenzyl)piperidin-4-yl)-4-(1-(4-cyanophenyl)piperidin-4-yloxy)-3-fluorobenzamide] gave a pEC50 of more than 6.00.

In turn, `COc1cc(C(=O)NCCCN2CCOCC2)ccc1OC1CCN(Cc2ccc(Cl)cc2)CC1` [5-98] showed a pEC50 of 5.00 to 6.00.

Consider `O=C(NC1CCN(C(=O)c2ccc(F)cc2)CC1)c1ccc(OC2CCN(c3ccc(C(F)(F)F)cc3)CC2)c(F)c1` [5-31, 3-fluoro-N-(1-(4-fluorobenzoyl)piperidin-4-yl)-4-(1-(4-(trifluoromethyl)phenyl)piperidin-4-yloxy)benzamide], for which the pEC50 is more than 6.00.

Take `O=C(NC1CCN(Cc2ccc(Cl)cc2)CC1)c1ccc(OC2CCN(Cc3ccc(Cl)cc3)CC2)c(F)c1` [5-72, N-(1-(4-chlorobenzyl)piperidin-4-yl)-4-(1-(4-chlorobenzyl)piperidin-4-yloxy)-3-fluorobenzamide]: the pEC50 was more than 6.00.

Regarding `O=C(NC1CCN(Cc2ccccc2)CC1)c1ccc(OC2CCN(Cc3ccc(OC(F)(F)F)cc3)CC2)c(Cl)c1` [5-54, N-(1-benzylpiperidin-4-yl)-3-chloro-4-(1-(4-(trifluoromethoxy)benzyl)piperidin-4-yloxy)benzamide], the pEC50 was more than 6.00.

`O=C(NC1CCN(Cc2ccccc2)CC1)c1ccc(OC2CCN(Cc3ccccc3)CC2)c(Cl)c1` [5-14, N-(1-benzylpiperidin-4-yl)-4-(1-benzylpiperidin-4-yloxy)-3-chlorobenzamide] showed a pEC50 of more than 6.00.

With `N#Cc1ccc(CN2CCC(Oc3ccc(C(=O)NC4CCN(Cc5ccccc5)CC4)cc3F)CC2)cc1` [5-41, N-(1-benzylpiperidin-4-yl)-4-(1-(4-cyanobenzyl)piperidin-4-yloxy)-3-fluorobenzamide], the pEC50 was more than 6.00.

On to `O=C(NC1CCN(Cc2ccccc2)CC1)c1ccc(OC2CCN(Cc3ccc(C(F)(F)F)cc3)CC2)c(F)c1` [5-55, N-(1-benzylpiperidin-4-yl)-3-fluoro-4-(1-(4-(trifluoromethyl)benzyl)piperidin-4-yloxy)benzamide], for which the pEC50 was more than 6.00.

For the compound `O=C(NC1CCN(C(=O)c2ccncc2)CC1)c1ccc(OC2CCN(c3ccc(C(F)(F)F)cc3)CC2)c(F)c1` [5-40, 3-fluoro-N-(1-isonicotinoylpiperidin-4-yl)-4-(1-(4-(trifluoromethyl)phenyl)piperidin-4-yloxy)benzamide], the pEC50 was more than 6.00.

Take `N#Cc1ccc(CN2CCC(NC(=O)c3ccc(OC4CCN(c5ccc(C(F)(F)F)cc5)CC4)c(F)c3)CC2)cc1` [5-43, N-(1-(4-cyanobenzyl)piperidin-4-yl)-3-fluoro-4-(1-(4-(trifluoromethyl)phenyl)piperidin-4-yloxy)benzamide]: the pEC50 is more than 6.00.
